Experimental data from patent US20100249402A1, “NOVEL BENZAMIDINE DERIVATIVES, PROCESS FOR THE PREPARATION THEREOF AND PHARMACEUTICAL COMPOSITION FOR PREVENTING OR TREATING OSTEPOROSIS COMPRISING THE SAME” (DONG WHA PHARMACEUTICAL CO. LTD., priority 2007, published 2010).
Like-named read-outs stand apart in the source and are kept apart here.

Columns and labels:
[1] = test system: osteoclast differentiation; test: Inhibitory effects on osteoclast differentiation (bone marrow cell/osteoblast co-culture, TRAP staining); type: cell-based, mice; settings: for inhibition at 1 µM: Mus musculus, Osteoclast, 168 h, read-out: Inhibition of osteoclast differentiation (%)
Protocol: The effect of the benzamidine derivative of the present invention on osteoclast formation and differentiation process was evaluated via co-culture with an osteoblast.
Tibia was aseptically ectomized from 6 to 8-week-old male ddY mice to harvest bone marrow cells by using a syringe (21G, Korea Green Cross). The bone marrow cells were suspended in 5 mL of an α-MEM medium (Gibco BRL Co., supplemented with sodium bicarbonate (2.0 g/L), streptomycin (100 mg/L) and penicillin ([…]), filtered and then sterilized). The harvested cells were centrifuged at 600×g for 5 minutes to collect the whole quantity. To remove the red blood cells in the bone marrow cells, 3 mL of Tris HCl (0.83% NH4Cl, pH 7.5) was added and well mixed. After centrifugation, the numbers of the eukaryotic cells in the harvested bone marrow cells were counted, and then immediately used for a co-culture system.
The progenitor bone and the parietal bone were aseptically ectomized from 1 to 2-day-old neonatal ICR mice, washed with a phosphate butter solution (PBS), and treated with a mixed enzyme solution (0.2% collagenase and 0.1% dispase) six to seven times (10, 10, 10, 20, 20 and 20 min), and then 3 to 6 groups of the cells, in which a large volume of cells having osteoblastic characteristics were contained, were intensively collected, and washed with medium (serum-free α-MEM). The washed cells were cultured in the α-MEM medium containing 10% FBS for 2 to 3 days. After sub-culturing, the collected cells were used for this experiment, and diluted to a concentration of 1×10^6 cells/mL for storage at −70° C.
The benzamidine derivative of the present invention was dissolved in a sterile distilled water or ethanol to be diluted to a desired concentration. The final volume of the sample added to the cell culture medium was set at a ratio of 1:1000.
The bone marrow cells prepared in the above 1-1 and the osteoblast were co-cultured. Both the bone marrow cells (25,000 cells/cm^2) and the osteoblast (10,000 cells/cm^2) were plated in a 96-well plate using α-MEM medium containing FBS, and then cultured with the samples to be tested for 7 days. Differentiation factors, such as dexamethasone (10^−7 M) and vitamin D (10^−8 M), were also co-added to the medium from the first day of cultivation. The medium was changed with a fresh media containing a mixture of the samples and the differentiation factors every 2 to 3 days.
TRAP was used as a marker to measure the matured osteoclast in consideration of its characteristics showing a positive reaction to a TRAP staining solution.
The TRAP staining solution was prepared in such the manner that 5 mg of naphthol AS-MS phosphate (sigma N-4875) as a substrate and 25 mg of a coloring agent (Fast Red Violet LB salt) were dissolved in N,N-dimethylformamide (about 0.5 mL). 50 ml of a 0.1 N […] buffer solution containing 50 mM tartaric acid (pH 5.0) was added thereto, and the mixture was stored in a refrigerator prior to use as a staining solution.
After culturing the cells for 7 days, the medium was removed from the wells, the cells were once washed with PBS, and then fixed with PBS containing 10% formalin for 2 to 5 min. The cells were fixed again in a mixed solution of ethanol and acetone (1/1) for about 1 min, and dried off. The cells were further treated by the TRAP staining solution for 15 minutes, and washed with water and dried off. The osteoclasts with 3 or more nuclei showing a TRAP-positive reaction were counted under a microscopic examination. Each of tests was confirmed at least three times. The inhibitory effect on osteoclast differentiation of each experimental group, relative to negative controls, was expressed as a percentage (%).

[2] = test system: MC3T3-E1; test: Cytotoxicity test (MTT), MC3T3-E1; type: cell-based; settings: 10^−6 M, cultured for 72 hrs, in comparison with the control group
Protocol: (§1) The cytotoxic effect of the benzamidine derivative of the present invention was evaluated by carrying out the experiment described below.
(§2) The test substance was diluted in an appropriate solvent at a concentration of 10^−2 M. This substance was diluted in an appropriate culture medium for the cells used in the cytotoxicity test to a concentration of 10^−6M, and loaded into a 96-well plate in 100 μl per well. The cell lines to be used in the cytotoxicity test were plated on a 96-well plate in a dose of 1.0×10^4 cell/100 μl per well, and cultured for 72 hrs. 25 μl of MTT[3-(4,5-dimethyl-2-thiazolyl)-2,5-diphenyl-2H-tetrazolium bromide] dissolved in PBS (2 mg/mL) were added before 4 hrs of the end of culture. After completion of the reaction, the plates were centrifuged, the medium was discarded and 100 μl of DMSO was added to dissolve formazan. Finally, the absorbance of the developed plates was measured at 540 nm. The survival rates of the cells were expressed as % concentration values in comparison with the control group.

[3] = test system: calvaria; test: Cytotoxicity test (MTT), calvaria; type: cell-based; settings: 10^−6 M, cultured for 72 hrs, in comparison with the control group
Protocol: as §1, §2

[4] = test system: HOS; test: Cytotoxicity test (MTT), HOS; type: cell-based; settings: 10^−6 M, cultured for 72 hrs, in comparison with the control group
Protocol: as §1, §2

[5] = 1 μm, 7 days co-culture, TRAP-positive osteoclasts with 3 or more nuclei, relative to negative controls

Compound | inhibition at 1 µM [1, 5] [%] | Cell survival rate [2] [%] | Cell survival rate [3] [%] | Cell survival rate [4] [%] | inhibition at 1 µM [1] [%] | Inhibition of osteoclast differentiation (%) [1, 5] [%]
N=C(NO)c1ccc(OCCCCCOc2ccc(-c3nc(N)sc3N3CCOCC3)cc2)cc1 [Example 3, N-hydroxy-4-{5-[4-(2-amino-5-morpholin-4-yl-thiazol-4-yl)-phenoxy]-pentyloxy}-benzamidine] | 73.2 | 94.6 | 97.7 | 89.0 |  | 
N=C(NO)c1ccc(OCCCCCOc2ccc(-c3nc(N4CCOCC4)sc3N3CCOCC3)cc2)cc1 [Example 5, N-hydroxy-4-{5-[4-(2,5-di-morpholin-4-yl-thiazol-4-yl)-phenoxy]-pentyloxy}-benzamidine] | 98 | 93 | 98 | 100 |  | 
N=C(NO)c1ccc(OCCCCCOc2ccc(-c3nc(-c4ccccc4)sc3N)cc2)cc1 [Example 45, N-hydroxy-4-{5-[4-(5-amino-2-phenyl-thiazol-4-yl)-phenoxy]-pentyloxy}-benzamidine] | 91 | 81 | 83 | 104 |  | 
Cc1nc(-c2ccc(OCCCCCOc3ccc(C(=N)NO)cc3)cc2)c(CN(C)C)s1 [Example 12, N-hydroxy-4-{5-[4-(5-dimethylaminomethyl-2-methyl-thiazol-4-yl)-phenoxy]-pentyloxy}-benzamidine] |  | 98.8 | 95.6 | 107.5 | 64.9 | 
Cc1nc(-c2ccc(OCCCCCOc3ccc(C(=N)NO)cc3)cc2)c(CN2CCN(C)CC2)s1 [Example 9, N-hydroxy-4-(5-{4-[2-methyl-5-(4-methyl-piperazin-1-ylmethyl)-thiazol-4-yl]-phenoxy}-pentyloxy)-benzamidine] |  | 98.8 | 92.3 | 95 | 96.4 | 
N=C(NO)c1ccc(OCCCCCOc2ccc(-c3nc(N4CCOCC4)sc3N3CCCC3)cc2)cc1 [Example 7, N-hydroxy-4-{5-[4-(2-morpholin-4-yl-5-pyrrolidin-1-yl-thiazol-4-yl)-phenoxy]-pentyloxy}-benzamidine] |  | 99 | 101 | 92 | 58 | 
Cc1nc(-c2ccc(OCCCCCOc3ccc(C(=N)NO)cc3)cc2)c(CNCC(C)C)s1 [Example 14, N-hydroxy-4-(5-{4-[5-(isobutylamino-methyl)-2-methyl-thiazol-4-yl]-phenoxy}-pentyloxy)-benzamidine] |  | 98 | 103 | 111 | 100 | 
Cc1nc(-c2ccc(OCCCCCOc3ccc(C(=N)NO)cc3)cc2)c(NC(=O)c2cccnc2)s1 [Example 39, N-hydroxy-4-[5-(4-{2-methyl-5-[(pyridine-3-carbonyl)-amino]-thiazol-4-yl}-phenoxy)-pentyloxy]-benzamidine] | 65.5 | 95.0 | 86.3 | 92.1 |  | 
CN(CCN1CCOCC1)c1nc(-c2ccc(OCCCCCOc3ccc(C(=N)NO)cc3)cc2)c(CN2CCSCC2)s1 [Example 29, N-hydroxy-4-[5-(4-{2-[methyl-(2-morpholin-4-yl-ethyl)-amino]-5-thiomorpholin-4-ylmethyl-thiazol-4-yl}-phenoxy)-pentyloxy]-benzamidine] |  | 109 | 99 | 109 | 97 | 
CC(C)NCc1sc(N(C)CCN2CCOCC2)nc1-c1ccc(OCCCCCOc2ccc(C(=N)NO)cc2)cc1 [Example 32, N-hydroxy-4-[5-(4-{5-(isopropylamino-methyl)-2-[methyl-(2-morpholin-4-yl-ethyl)-amino]-thiazol-4-yl}-phenoxy)-pentyloxy]-benzamidine] | 100 | 104 | 98 | 106 |  | 
N=C(NO)c1ccc(OCCCCCOc2ccc(-c3nc(N4CCOCC4)sc3CN3CCOCC3)cc2)cc1 [Example 51, N-hydroxy-4-{5-[4-(2-morpholin-4-yl-5-morpholin-4-ylmethyl-thiazol-4-yl)-phenoxy]-pentyloxy}-benzamidine] | 95 | 88 | 102 | 91 |  | 
Cc1nc(-c2ccc(OCCCCCOc3ccc(C(=N)NO)cc3)cc2)c(CNCCCn2ccnc2)s1 [Example 18] |  | 99 | 94 | 106 |  | 100
Cc1nc(-c2ccc(OCCCCCOc3ccc(C(=N)NO)cc3)cc2)c(N2CCOCC2)s1 [Example 1, N-hydroxy-4-{5-[4-(2-methyl-5-morpholin-4-yl-thiazol-4-yl)-phenoxy]-pentyloxy}-benzamidine] | 94 | 85.9 | 91.5 | 105.6 |  | 
COCCNCc1sc(N(C)CCN2CCOCC2)nc1-c1ccc(OCCCCCOc2ccc(C(=N)NO)cc2)cc1 [Example 33, N-hydroxy-4-[5-(4-{5-[(2-methoxy-ethylamino)-methyl]-2-[methyl-(2-morpholin-4-yl-ethyl)-amino]-thiazol-4-yl}-phenoxy)-pentyloxy]-benzamidine] |  | 104 | 94 | 110 | 100 | 
Cc1nc(-c2ccc(OCCCCCOc3ccc(C(=N)NO)cc3)cc2)c(CN2CCOCC2)s1 [Example 8, N-hydroxy-4-{5-[4-(2-methyl-5-morpholin-4-ylmethyl-thiazol-4-yl)-phenoxy]-pentyloxy}-benzamidine] | 96.4 | 94.7 | 90.7 | 102.3 |  | 
CN(CCO)c1nc(-c2ccc(OCCCCCOc3ccc(C(=N)NO)cc3)cc2)c(CN2CCOCC2)s1 [Example 25, N-hydroxy-4-[5-(4-{2-[(2-hydroxy-ethyl)-methyl-amino]-5-morpholin-4-ylmethyl-thiazol-4-yl}-phenoxy)-pentyloxy]-benzamidine] |  | 100 | 86 | 86 | 100 | 
CN1CCN(c2sc(N3CCOCC3)nc2-c2ccc(OCCCCCOc3ccc(C(=N)NO)cc3)cc2)CC1 [Example 4, N-hydroxy-4-(5-{4-[5-(4-methyl-piperazin-1-yl)-2-morpholin-4-yl-thiazol-4-yl]-phenoxy}-pentyloxy)-benzamidine] |  | 89 | 93 | 104 | 100 | 
